Experimental data reported in patent US20100173298A1, “HCV GENE” (priority 2007, published 2010).

Legend:
[1] = test system: pTPF1/4B full-length HCV RNA replicon; experiment: Inhibition of replication of full-length HCV RNA replicon by interferon (core antigen in Huh7 cells); type: cell-based, hepatitis C virus (genotype 1b); conditions: pTPF1/4B RNA in Huh7 cells; interferon 0.1 to 300 IU/ml for 24 hours; core antigen in cells vs no-interferon control
From the text: (§1) Evaluation of an inhibitory action of interferon on the replication of the HCV RNA replicon was attempted using the full-length HCV RNA replicon. The full-length HCV RNA used for the evaluation of the inhibitory action of interferon was pTPF1/4B which was replicable with high efficiency in Huh7 cells in Example 4 and a chimera between AHC1 obtained in Example 6 and pTPF1/4B was also used. As for a chimera vector, the full-length HCV DNA pTPF1 was digested with restriction enzymes, Age I and Bsr GI and a fragment obtained by digesting AHC1 with restriction enzymes, Age I and Bsr GI were ligated to and inserted into the region of the cleavage of pTPF1, thereby preparing HCV DNA pTPF1/AHC1_AgeBsr in which the structural protein region of AHC1 was inserted. […]
(§2) At twenty four hours after the culture was started, the medium was replaced with culture medium dissolving various concentrations (from 0.1 IU/ml to 300 IU/ml) of interferon. […] Cell pellet was dissolved in 50 μl of RIPA buffer (20 mM Tris-HCl (pH 7.5), 150 mM NaCl, 1 mM EDTA, 1% NP40, 0.1% Deoxycholate, 0.1% SDS, Complete protease inhibitor cocktail (Roche diagnostics corporation) and supernatant was collected by centrifugation at 10 k rpm for 5 minutes. The supernatant in an amount of 5 μl was measured using a kit for HCV core antigen (FUJIREBIO, Lumipulse).

[2] = test system: pTPF1/AHC1_AgeBsr full-length HCV RNA replicon; experiment: as above; type: cell-based, hepatitis C virus (genotype 1b); conditions: interferon 0.1 to 300 IU/ml for 24 hours, core antigen in cells vs no-interferon control
From the text: as §1, §2

interferon
Inhibitory activity for replication of HCV RNA replicon: IC50 [1]: >300 IU/m | Inhibitory activity for replication of HCV RNA replicon: IC50 [2]: 33 IU/m
